Tests used:
Homo sapiens = species: Homo sapiens; assay: In vitro inhibitory activity against human classical complement pathway; assay type: functional
Cavia porcellus = assay: Inhibition dose of the Reverse Passive Arthus Reaction (RPAR) in guinea pig after intravenous administration at a dose 80 mg/kg; assay type: functional

| SMILES | IC50 (Homo sapiens) | inhibition in vivo at 80 mg/kg (Cavia porcellus) |
| --- | --- | --- |
| O=C(O)c1ccc(-c2c(-c3ccccc3)[nH]c3ccccc23)cc1 | 105 µM | – |
| O=C(O)C1CC=C(c2c(-c3ccccc3)[nH]c3ccccc23)CC1 (stereo not drawn) | 135 µM | 64% |

From ChEMBL document CHEMBL1122884, “Syntheses and complement inhibitory activities of 4-(2-phenyl-1H-indol-3-yl)cyclohexane-1-carboxylic acids” (J Med Chem, 1985)
